Test results from patent US8778966B2, “Quinolinone derivatives as PARP and tank inhibitors” (Janssen Pharmaceutica, NV, priority 2007, dated 2014).

Experiments:
PC3 cells = assay: EB1 Comet (microtubule disruption) assay; format: cell-based, human; conditions: 1 hour treatment; for minimal effective concentration: Homo sapiens, PC-3, 1 h, read-out: EB1 pLAC (converted)
How it was run: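 PC3 human prostate cancer cells exposed to compound for 1 h at 37 °C (0.6% DMSO final), methanol-fixed, immunostained for Eb1 and imaged at 20×. Value is the lowest active concentration (LAC): the concentration at which Eb1 foci are absent in at least 50% of treated cells.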

Human PARP-1 enzyme = target: T1, Human PARP-1 enzyme (Homo sapiens, UniProt P09874); assay: In vitro Scintillation Proximity Assay (SPA) for PARP-1 inhibitory activity; format: biochemical; conditions: read-out: in vitro SPA assay PARP-1 pIC50 (converted)
T1 construct: purchased Trevigen
T1 sequence (P09874 whole entry): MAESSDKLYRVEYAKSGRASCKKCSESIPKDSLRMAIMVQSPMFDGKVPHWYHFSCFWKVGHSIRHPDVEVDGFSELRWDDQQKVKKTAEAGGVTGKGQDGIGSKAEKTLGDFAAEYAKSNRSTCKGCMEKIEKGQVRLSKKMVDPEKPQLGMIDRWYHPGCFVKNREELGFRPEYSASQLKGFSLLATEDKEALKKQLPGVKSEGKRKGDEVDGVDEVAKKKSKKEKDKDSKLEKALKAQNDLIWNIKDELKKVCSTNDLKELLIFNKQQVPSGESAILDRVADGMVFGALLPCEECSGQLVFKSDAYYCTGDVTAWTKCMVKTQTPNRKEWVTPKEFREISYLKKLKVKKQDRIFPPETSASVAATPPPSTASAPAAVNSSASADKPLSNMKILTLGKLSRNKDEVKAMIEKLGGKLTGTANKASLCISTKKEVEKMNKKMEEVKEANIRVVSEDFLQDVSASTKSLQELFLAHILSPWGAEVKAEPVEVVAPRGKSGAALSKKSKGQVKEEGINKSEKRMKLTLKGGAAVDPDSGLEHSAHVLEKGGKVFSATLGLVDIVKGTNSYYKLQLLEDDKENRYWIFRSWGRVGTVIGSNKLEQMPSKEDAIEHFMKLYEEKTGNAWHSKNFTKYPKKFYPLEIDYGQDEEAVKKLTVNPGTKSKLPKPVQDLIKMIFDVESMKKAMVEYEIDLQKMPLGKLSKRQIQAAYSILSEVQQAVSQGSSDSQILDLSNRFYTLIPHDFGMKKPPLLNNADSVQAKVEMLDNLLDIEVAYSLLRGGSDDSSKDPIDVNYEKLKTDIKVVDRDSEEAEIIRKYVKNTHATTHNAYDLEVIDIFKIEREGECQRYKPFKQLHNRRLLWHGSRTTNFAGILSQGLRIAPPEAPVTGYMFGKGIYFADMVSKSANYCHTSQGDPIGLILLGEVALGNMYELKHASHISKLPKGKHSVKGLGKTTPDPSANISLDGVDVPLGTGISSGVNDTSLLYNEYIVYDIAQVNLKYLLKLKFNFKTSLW
How it was run: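 SPA assay: nicked-DNA-activated PARP-1 (0.1–0.2 μg/ml) ADP-ribosylates biotinylated histones (2 μg/ml) using [3H]-NAD+, 20 min at RT in Tris pH 8/DTT/MgCl2, stopped with 2 mM NAD+. Blank-subtracted cpm expressed as % control; IC50 by linear interpolation, reported as pIC50 (10−5 to 3×10−9 M tested).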

| IC50 (Human PARP-1 enzyme) [µM] | Structure (SMILES) | minimal effective concentration (PC3 cells) [µM] | EB1 pLAC (PC3 cells) |
| --- | --- | --- | --- |
| 0.1 | Cc1cc2ccc(C(C)(C#N)C3CCc4c(C#N)cccc43)cc2[nH]c1=O (racemic) [Compound 393] | 10 |  |
| 0.1 | CCc1cc2ccc([C@@](C)(C#N)CN(C)Cc3ccc(C#N)cc3)cc2[nH]c1=O (single isomer, unassigned) [Compound 253] | 0.1 |  |
| 0.126 | CCc1cc2ccc(C(C)(C#N)C3CCc4ccc(Br)cc43)cc2[nH]c1=O (single isomer, unassigned) [Compound 380] |  | 6 |
| 0.0794 | CCc1cc2ccc(C(C)(C#N)C3CCc4ccc(Br)cc43)cc2[nH]c1=O (single isomer, unassigned) [Compound 381] |  | 7 |
| 0.2 | Cc1cc2ccc([C@](C)(C#N)C3CCc4cccnc43)cc2[nH]c1=O (single isomer, unassigned) [Compound 388] | > 10 |  |
| 0.2 | CCc1cc2ccc([C@](C)(C#N)[C@H]3CCOc4ccccc43)cc2[nH]c1=O (single isomer, unassigned) [Compound 394] | 3.16 |  |
| 0.0631 | CCc1cc2ccc([C@@](C)(C#N)[C@H]3CCOc4ccccc43)cc2[nH]c1=O (single isomer, unassigned) [Compound 395] | 0.316 |  |
| 0.1 | CCc1cc2ccc([C@](C)(C#N)C[C@H]3CCc4ccccc4O3)cc2[nH]c1=O (single isomer, unassigned) [Compound 396] |  |  |
| 0.251 | CCc1cc2ccc(C(C)(C#N)Cc3cccc(-c4cnn(C)c4)c3)cc2[nH]c1=O (stereo not shown) [Compound 17] | 3.16 |  |
| 2 | CCc1cc2ccc(C(C)(C#N)Cc3cccc(-c4ccccc4)c3)cc2[nH]c1=O (stereo not shown) [Compound 18] | 1 |  |
| 1 | CCc1cc2ccc(C(C)(C#N)Cc3cccc(I)c3)cc2[nH]c1=O (stereo not shown) [Compound 19] | 0.316 |  |
| 0.398 | CCc1cc2ccc(C(C)(C#N)Cc3cccc(N(C)C)c3)cc2[nH]c1=O (stereo not shown) [Compound 20] | 0.1 |  |
| 0.398 | CCc1cc2ccc(C(C)(C#N)Cc3cccc(N4CCOCC4)c3)cc2[nH]c1=O (stereo not shown) [Compound 21] | 1 |  |
| 0.126 | CCc1cc2ccc(C(C)(C#N)Cc3cccc(O)c3)cc2[nH]c1=O (stereo not shown) [Compound 22] |  |  |
| 1.26 | CCc1cc2ccc(C(C)(C#N)Cc3cccc(OCc4ccccc4)c3)cc2[nH]c1=O (stereo not shown) [Compound 23] | 10 |  |
| 0.631 | CCc1cc2ccc(C(C)(C#N)Cc3cccc(OCCOC)c3)cc2[nH]c1=O (stereo not shown) [Compound 24] | 1 |  |
| 0.126 | CCC(=O)c1cccc(CC(C)(C#N)c2ccc3cc(C)c(=O)[nH]c3c2)c1 (stereo not shown) [Compound 173] | 0.316 |  |
| 0.0398 | CCc1cc2ccc(C(C)(C#N)Cc3cc(C)cc(C#N)c3)cc2[nH]c1=O (stereo not shown) [Compound 174] | 0.1 |  |
| 0.0794 | CCc1cc2ccc(C(C)(C#N)Cc3cccc(S(F)(F)(F)(F)F)c3)cc2[nH]c1=O (stereo not shown) [Compound 177] | 1 |  |
| 0.0251 | CCc1cc2ccc(C(C)(C#N)Cc3cccc(C4(N)CC4)c3)cc2[nH]c1=O (stereo not shown) [Compound 180] | 3.16 |  |

| IC50 (Human PARP-1 enzyme) [µM] | Structure (SMILES) | minimal effective concentration (PC3 cells) [µM] | EB1 pLAC (PC3 cells) |
| --- | --- | --- | --- |
| 0.0794 | CCc1cc2ccc(C(C)(C#N)CCCN(C)C(=O)c3ccc(F)cc3)cc2[nH]c1=O (stereo not shown) [Compound 188] | 1 |  |
| 0.0631 | CCc1cc2ccc([C@](C)(C#N)CN(C)Cc3ccc(C#N)cc3)cc2[nH]c1=O [Compound 190] | 10 |  |
| 0.126 | Cc1cc2ccc(C(C)(C#N)Cc3cccc(Oc4ncccn4)c3)cc2[nH]c1=O (stereo not shown) [Compound 191] | 0.316 |  |
| 0.1 | Cc1cc2ccc(C(C)(C#N)Cc3cccc(Oc4ccccc4)n3)cc2[nH]c1=O (stereo not shown) [Compound 193] | 0.1 |  |
| 0.1 | CCc1cc2cc(C)c(C(C)(C#N)Cc3cccc(C#N)n3)cc2[nH]c1=O (stereo not shown) [Compound 208] |  |  |
| 0.02 | CCc1cc2ccc(C(C)(C#N)Cc3ccc(Cl)nc3Cl)cc2[nH]c1=O (stereo not shown) [Compound 212] |  |  |
| 0.631 | COc1cc2ccc(C(C)(C#N)Cc3cccc(C#N)n3)cc2[nH]c1=O (stereo not shown) [Compound 218] | 0.316 |  |
| 0.0501 | CCc1cnc(OCCC(C)(C#N)c2ccc3cc(CC)c(=O)[nH]c3c2)nc1 (stereo not shown) [Compound 222] | 10 |  |
| 0.0501 | CCc1cc2ccc(C(C)(C#N)CCOc3nccc(OC)n3)cc2[nH]c1=O (stereo not shown) [Compound 223] | 1 |  |
| 0.0126 | CCc1cc2ccc(C(C)(C#N)Cc3ccc(OC)nc3Cl)cc2[nH]c1=O (stereo not shown) [Compound 224] | 0.316 |  |
| 0.0398 | CCc1cc2ccc(C(C)(C#N)Cc3ccc(Cl)nc3OC)cc2[nH]c1=O (stereo not shown) [Compound 225] | 1 |  |
| 0.0501 | CCc1cc2ccc(C(C)(C#N)Cc3cccc(N4CCCC4)n3)cc2[nH]c1=O (stereo not shown) [Compound 226] | 3.16 |  |
| 0.1 | Cc1cc2ccc(C(C)(C#N)Cc3cccc(C#N)n3)cc2[nH]c1=O (stereo not shown) [Compound 227] | 1 |  |
| 0.0251 | CCc1cc2ccc(C(C)(C#N)Cc3cc(OC)cc(OC)n3)cc2[nH]c1=O (stereo not shown) [Compound 232] | 0.1 |  |
| 0.02 | CCc1cc2ccc(C(C)(C#N)Cc3cc(C#N)cc4c3OCC4)cc2[nH]c1=O (stereo not shown) [Compound 236] | 0.316 |  |
| 0.0398 | CCc1cc2ccc(C(C)(C#N)Cc3cc4ccccc4nn3)cc2[nH]c1=O (stereo not shown) [Compound 238] | 1 |  |
| 0.2 | Cc1cc2ccc([C@@](C)(C#N)[C@@H]3CCc4cc(Br)ccc43)cc2[nH]c1=O [Compound 240] | > 10 |  |
| 0.2 | Cc1cc2ccc([C@@](C)(C#N)[C@H]3CCc4cc(Br)ccc43)cc2[nH]c1=O [Compound 241] | 0.316 |  |
| 0.158 | Cc1cc2ccc([C@](C)(C#N)[C@@H]3CCc4cc(Br)ccc43)cc2[nH]c1=O [Compound 242] | 0.1 |  |
| 0.2 | Cc1cc2ccc(C(C)(C#N)C3CCc4cc(Br)ccc43)cc2[nH]c1=O (stereo not shown) [Compound 244] |  | 7 |

| IC50 (Human PARP-1 enzyme) [µM] | Structure (SMILES) | minimal effective concentration (PC3 cells) [µM] | EB1 pLAC (PC3 cells) |
| --- | --- | --- | --- |
| 0.0794 | Cc1cc2ccc(C(C)(C#N)C3CCc4c(Br)cccc43)cc2[nH]c1=O (stereo not shown) [Compound 248] | 0.316 |  |
| 0.126 | Cc1cc2ccc(C(C)(C#N)C3CCc4ccc(Br)cc43)cc2[nH]c1=O (stereo not shown) [Compound 249] | 0.178 |  |
| 0.1 | Cc1cc2ccc(C(C)(C#N)C3CCc4ccc(C#N)cc43)cc2[nH]c1=O (stereo not shown) [Compound 250] | 0.316 |  |
| 0.0316 | C=C(C)c1cccc(CC(C)(C#N)c2ccc3cc(CC)c(=O)[nH]c3c2)c1 (stereo not shown) [Compound 254] | 1 |  |
| 0.02 | CCc1cc2ccc(C(C#N)(CC)Cc3cccc(C#N)c3)cc2[nH]c1=O (stereo not shown) [Compound 265] | 1 |  |
| 0.0501 | CCc1cc2ccc(C(C)(C#N)Cc3cc(F)cc(C#N)c3)cc2[nH]c1=O (stereo not shown) [Compound 266] | 0.316 |  |
| 0.0398 | CCc1cc2ccc(C(C#N)(CC)Cc3cccc(F)c3)cc2[nH]c1=O (stereo not shown) [Compound 270] | 3.16 |  |
| 0.126 | Cc1cc2ccc(C(C)(C#N)CCCCOc3ccccc3)cc2[nH]c1=O (stereo not shown) [Compound 272] | 1 |  |
| 0.1 | Cc1cc2ccc(C(C)(C#N)Cc3cc(F)cc(F)c3)cc2[nH]c1=O (stereo not shown) [Compound 282] | 3.16 |  |
| 0.0316 | CCc1cc2ccc(C(C)(C#N)Cc3cc(C)cc(Br)c3)cc2[nH]c1=O (stereo not shown) [Compound 284] | 0.316 |  |
| 0.0398 | CCc1cc2ccc(C(C#N)(CC)Cc3cccc(OC)c3)cc2[nH]c1=O (stereo not shown) [Compound 287] | 0.316 |  |
| 0.0631 | CCc1cc2ccc(C(C)(C#N)Cc3cc(C)nc(C#N)c3)cc2[nH]c1=O (stereo not shown) [Compound 328] |  |  |
| 0.0398 | CCc1cc2ccc(C(C)(C#N)Cc3ccnc(F)c3)cc2[nH]c1=O (stereo not shown) [Compound 330] |  |  |
| 0.1 | CCc1cc2ccc(C(C)(C#N)CN3CCN(c4ncc(Br)cn4)CC3)cc2[nH]c1=O (stereo not shown) [Compound 374] |  |  |
| 0.501 | Cc1cc2ccc([C@@](C)(C#N)[C@@H]3CCCc4ccccc43)cc2[nH]c1=O [Compound 382] |  |  |
| 0.0631 | CCc1cc2ccc(C(C#N)(CC)Cc3cccc(CN)c3)cc2[nH]c1=O (stereo not shown) [Compound 390] |  |  |
| 0.501 | CCc1cc2ccc(C(C#N)(CC)C3CCc4ccc(OC)cc43)cc2[nH]c1=O (stereo not shown) [Compound 403] |  |  |
| 0.316 | Cc1cc2ccc([C@@](C)(C#N)[C@H]3CCc4ccc(Br)cc43)cc2[nH]c1=O [Compound 405] |  |  |
| 0.158 | Cc1cc2ccc([C@](C)(C#N)[C@@H]3CCc4ccc(Br)cc43)cc2[nH]c1=O [Compound 406] |  |  |
| 0.631 | Cc1cc2ccc([C@](C)(C#N)[C@H]3CCc4ccc(Br)cc43)cc2[nH]c1=O [Compound 407] |  |  |

| Structure (SMILES) | IC50 (Human PARP-1 enzyme) [µM] | minimal effective concentration (PC3 cells) [µM] | EB1 pLAC (PC3 cells) |
| --- | --- | --- | --- |
| CCc1cc2ccc(C(C)(C#N)CN(C)CCc3cn(C)c4ccccc34)cc2[nH]c1=O (stereo not shown) [Compound 303] | 0.0631 | 10 |  |
